The text below walks through data of patent publication US20060247320A1, “Compounds for inhibiting KSP kinesin activity” (priority 2005, published 2006).

pIC50: −log10 of the molar value.

The first test has as its target T1, KSP motor domain (Homo sapiens, UniProt P52732).
T1 sequence (P52732 18-359 limits assumed): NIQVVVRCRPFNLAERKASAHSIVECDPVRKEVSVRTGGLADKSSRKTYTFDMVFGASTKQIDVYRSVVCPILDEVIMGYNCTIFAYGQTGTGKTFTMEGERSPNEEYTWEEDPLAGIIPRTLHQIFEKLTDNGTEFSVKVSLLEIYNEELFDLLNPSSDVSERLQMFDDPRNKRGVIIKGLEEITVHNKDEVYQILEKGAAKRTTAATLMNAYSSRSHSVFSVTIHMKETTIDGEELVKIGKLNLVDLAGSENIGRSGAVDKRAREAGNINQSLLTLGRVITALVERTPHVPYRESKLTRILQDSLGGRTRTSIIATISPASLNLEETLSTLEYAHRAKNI
Nature of the test: biochemical. Particulars: IC50 (nM), KSP inhibitory activity, end-point assay; class symbols (Table 1).
For the molecule `C[Si](C)(C)C1CCc2nc3sc(C(N)=O)cc3cc2C1` (single isomer, unassigned) [Example 189, 5,6,8-Tetrahydro-6-(Trimethylsilyl)thieno[2,3-b]quinoline-2-Carboxamide], the IC50 was less than 100 nM.

Staying with this test, now noted: IC50 (nM), exact IC50 values, end-point assay (Table 2).
The molecule `C[Si](C)(C)C1CCc2nc3sc(C(N)=O)cc3cc2C1` (single isomer, unassigned) [Example 189, 5,6,8-Tetrahydro-6-(Trimethylsilyl)thieno[2,3-b]quinoline-2-Carboxamide] returned an IC50 of 50 nM.

Staying with this test, now noted: KSP inhibitory activity, end-point assay; class symbols (Table 1).
As to `CC(C)(C)C1CCc2nc3sc(C(=N)N)cc3cc2C1` (centres unmarked) [Example 69, 6-tert-butyl-5,6,7,8-tetrahydrothieno[2,3-b]quinoline-2-carboxamidine], the “IC50 (nM)” value was “B/C”.

Still in this test, the particulars now being: KSP inhibitory activity, end-point assay; class symbols (Table 1); read-out: IC50.
Take `CC(C)(C)C1CCc2nc3sc(C#N)cc3cc2C1` (racemic) [Example 58, 6-tert-butyl-5,6,7,8-tetrahydrothieno[2,3-b]quinoline-2-carbonitrile]: the pIC50 is 6.00 to 7.00. The same measure, in the same setting: the figure for `CC(C)(C)C1CCc2nc3sc(C#N)cc3cc2C1` (single isomer, unassigned) [Example 62] is 6.00 to 7.00; for `CC(C)(C)C1CCc2nc3sc(C#N)cc3cc2C1` (single isomer, unassigned) [Example 63] it is more than 7.00; for `CC(C)(C)C1CCc2nc3sc(C(N)=O)cc3cc2C1` (single isomer, unassigned; (+)) [Example 68, (+)-6-(1,1-dimethylethyl)-5,6,7,8-tetrahydrothieno[2,3-b]quinoline-2-carboxamide] it is more than 7.00.

Regarding `CC(C)(C)C1CCc2nc3sc(C(N)=O)cc3cc2C1` (single isomer, unassigned; (-)) [Example 67, (−)-6-(1,1-dimethylethyl)-5,6,7,8-tetrahydrothieno[2,3-b]quinoline-2-carboxamide], the pIC50 is 6.00 to 7.00. Still for that read-out and setting: the figure for `CC(CO)NC(=O)c1sc2nc3c(cc2c1N)CC(C(C)(C)C)CC3` (stereo in doubt) [Example 192, 3-Amino-6-(1,1-Dimethylethyl)-5,6,7,8-Tetrahydro-N-(2-Hydroxy-1(S)-Methylethyl)thieno[2,3-b]quinoline-2-Carboxamide] is 5.00 to 6.00. Same read-out and setting: the figure for `CC(C)C1CCc2nc3sc(C#N)c(N)c3cc2C1` (centres unmarked) [Example 1, 3-amino-6-isopropyl-5,6,7,8-tetrahydrothieno[2,3-b]quinoline-2-carbonitrile] is 5.00 to 6.00; for `N#Cc1sc2nc3c(cc2c1N)CC(c1ccccc1)CC3` (centres unmarked) [Example 3] it is less than 5.00; for `N#Cc1sc2nc3c(cc2c1N)CC(C12CC4CC(CC(C4)C1)C2)CC3` (centres unmarked) [Example 4] it is less than 5.00. Regarding `CCC(CC)(CC)C1CCc2nc3sc(C#N)c(N)c3cc2C1` (centres unmarked) [Example 5], the pIC50 was 5.00 to 6.00.

In the case of `CC1(C2CCc3nc4sc(C#N)c(N)c4cc3C2)CCCC1` (centres unmarked) [Example 6], the negative logarithm of the IC50 (pIC50) was 6.00 to 7.00. For the molecule `CC(C)C(C)(C)C1CCc2nc3sc(C#N)c(N)c3cc2C1` (centres unmarked) [Example 7], the pIC50 was less than 5.00. Still for that read-out and setting: the result for `CC(C)CC(C)(C)C1CCc2nc3sc(C#N)c(N)c3cc2C1` (centres unmarked) [Example 8] reads less than 5.00. Same read-out and setting: the figure for `CC(C)(C)C(C)(C)C1CCc2nc3sc(C#N)c(N)c3cc2C1` (centres unmarked) [Example 9] is 5.00 to 6.00; for `CCCC(C)(C)C1CCc2nc3sc(C#N)c(N)c3cc2C1` (centres unmarked) [Example 10] it is 6.00 to 7.00; for `CC(C)(C)CC(C)(C)C1CCc2nc3sc(C#N)c(N)c3cc2C1` (centres unmarked) [Example 11] it is less than 5.00. On to `CCC(C)(C)C1CCc2nc3sc(C#N)c(N)c3cc2C1` (centres unmarked) [Example 12], for which the pIC50 was more than 7.00. Same read-out and setting: the result for `CC1CCc2nc3sc(C#N)c(N)c3cc2C1` (centres unmarked) [Example 13] reads less than 5.00; that for `N#Cc1sc2nc3c(cc2c1N)CC(C(F)(F)F)CC3` (centres unmarked) [Example 14], 5.00 to 6.00.

On to `CCCC1CCc2nc3sc(C#N)c(N)c3cc2C1` (centres unmarked) [Example 15], for which the pIC50 is 5.00 to 6.00. The same measure, in the same setting: the figure for `CCCC1(CCC)CCc2nc3sc(C#N)c(N)c3cc2C1` [Example 16] is less than 5.00; for `CCC1CCc2nc3sc(C#N)c(N)c3cc2C1` (centres unmarked) [Example 17] it is 5.00 to 6.00. Same read-out and setting: the figure for `N#Cc1sc2nc3c(cc2c1N)CC(C1CCCCC1)CC3` (centres unmarked) [Example 18] is less than 5.00; for `CCCCCC1CCc2nc3sc(C#N)c(N)c3cc2C1` (centres unmarked) [Example 19] it is less than 5.00; for `CC(C)CCC1CCc2nc3sc(C#N)c(N)c3cc2C1` (centres unmarked) [Example 20] it is less than 5.00. `CCC(C)C1CCc2nc3sc(C#N)c(N)c3cc2C1` (centres unmarked) [Example 21]: the pIC50 was 5.00 to 6.00.

With `N#Cc1sc2nc3c(cc2c1N)CC(C1CCCC1)CC3` (centres unmarked) [Example 22], the pIC50 was less than 5.00. In the case of `CC(C1CCc2nc3sc(C#N)c(N)c3cc2C1)C(C)(C)C` (centres unmarked) [Example 23], the pIC50 was less than 5.00. Same read-out and setting: the figure for `CC(C)C(C(C)C)C1CCc2nc3sc(C#N)c(N)c3cc2C1` (centres unmarked) [Example 24] is 5.00 to 6.00. Same read-out and setting: the figure for `CC(C)(C)CC1CCc2nc3sc(C#N)c(N)c3cc2C1` (centres unmarked) [Example 25] is 6.00 to 7.00; for `CCC(CC)C1CCc2nc3sc(C#N)c(N)c3cc2C1` (centres unmarked) [Example 26] it is 6.00 to 7.00; for `CC(C)CC1CCc2nc3sc(C#N)c(N)c3cc2C1` (centres unmarked) [Example 27] it is 5.00 to 6.00. For the molecule `CCC(C(C)C)C1CCc2nc3sc(C#N)c(N)c3cc2C1` (centres unmarked) [Example 28], the negative logarithm of the IC50 (pIC50) is 6.00 to 7.00. As for `CCC(C1CCc2nc3sc(C#N)c(N)c3cc2C1)C(C)(C)C` (centres unmarked) [Example 29], the pIC50 was less than 5.00. As for `CC(C)C(C)C1CCc2nc3sc(C#N)c(N)c3cc2C1` (centres unmarked) [Example 30], the pIC50 was 6.00 to 7.00.

With `N#Cc1sc2nc3c(cc2c1N)CC(Cc1ccccc1)CC3` (centres unmarked) [Example 31], the pIC50 is less than 5.00. `CCCCC1CCc2nc3sc(C#N)c(N)c3cc2C1` (centres unmarked) [Example 32]: the pIC50 was less than 5.00. Turning to `C/C=C/C=C1\CCc2nc3sc(C#N)c(N)c3cc2C1` [Example 35], the negative logarithm of the IC50 (pIC50) is less than 5.00. The same measure, in the same setting: the figure for `CC(C)=C/C=C1\CCc2nc3sc(C#N)c(N)c3cc2C1` [Example 36] is less than 5.00. Take `N#Cc1sc2nc3c(cc2c1N)C/C(=C/C1CC1)CC3` [Example 37]: the negative-log IC50 (pIC50) is less than 5.00. Still for that read-out and setting: the figure for `CCC(C)(C)C1Cc2cc3c(N)c(C#N)sc3nc2C1` (centres unmarked) [Example 38] is 5.00 to 6.00; for `CC(C)(C)C1CCCc2nc3sc(C#N)c(N)c3cc2C1` (centres unmarked) [Example 40] it is more than 7.00; for `CC(C)(C)C1CCc2cc3c(N)c(C#N)sc3nc2CC1` (centres unmarked) [Example 41] it is 5.00 to 6.00. Still for that read-out and setting: the figure for `CC(C)(C)OC(=O)N1CCc2nc3sc(C#N)c(N)c3cc2C1` [Example 42] is less than 5.00; for `CC1(C2CCc3nc4sc(C#N)c(N)c4cc3C2)CC1` (centres unmarked) [Example 43] it is 6.00 to 7.00; for `N#Cc1sc2nc3c(cc2c1N)CC1(CC3)OCCO1` [Example 44] it is less than 5.00. On the same count and under the same terms, the figure for `N#Cc1sc2nc3c(cc2c1N)CCCC3` [Example 45] is less than 5.00; for `CC1Cc2nc3sc(C#N)c(N)c3cc2C(C)C1` (centres unmarked) [Example 46] it is less than 5.00; for `CC1(C)CCc2nc3sc(C#N)c(N)c3cc2C1` [Example 47] it is less than 5.00. Take `CC1(C)Cc2nc3sc(C#N)c(N)c3cc2C(C)(C)C1` [Example 48]: the pIC50 was less than 5.00. As for `CCCC1CCc2cc3c(N)c(C#N)sc3nc2C1` (centres unmarked) [Example 49], the negative logarithm of the IC50 (pIC50) was less than 5.00. On the same count and under the same terms, the figure for `N#Cc1sc2nc3c(cc2c1N)CCC(C(F)(F)F)C3` (centres unmarked) [Example 50] is less than 5.00; for `CC(C)C1CCc2cc3c(N)c(C#N)sc3nc2C1` (centres unmarked) [Example 51] it is less than 5.00; for `CCCC1CCCc2cc3c(N)c(C#N)sc3nc21` (centres unmarked) [Example 52] it is less than 5.00. Same read-out and setting: the figure for `N#Cc1sc2nc3c(cc2c1N)CC(=O)CC3` [Example 53] is less than 5.00; for `CCC(C)(C)C1CCc2nc3sc(C#N)c(N)c3c(SC)c2C1` (centres unmarked) [Example 54] it is less than 5.00. Same read-out and setting: the figure for `N#Cc1sc2nc3c(cc2c1N)CN(CC1CC1)CC3` [Example 55] is less than 5.00. On to `N#Cc1sc2nc3c(cc2c1N)CN(Cc1ccccc1)CC3` [Example 56], for which the negative-log IC50 (pIC50) is less than 5.00. On the same count and under the same terms, the figure for `N#Cc1sc2nc3c(cc2c1N)CN(CCC(F)(F)F)CC3` [Example 57] is less than 5.00. Regarding `CCC(C)(C)C1CCc2nc3sc(C#N)cc3cc2C1` (centres unmarked) [Example 59], the pIC50 was more than 7.00. Still for that read-out and setting: the result for `CC(C)(C)C1CCCc2nc3sc(C#N)cc3cc2C1` (centres unmarked) [Example 60] reads more than 7.00. The same measure, in the same setting: the result for `CC(C)(C)C1CCc2cc3cc(C#N)sc3nc2CC1` (centres unmarked) [Example 61] reads 5.00 to 6.00; that for `CC(C)(C)C1CCc2nc3sc(C(N)=O)cc3cc2C1` (centres unmarked) [Example 64, 6-tert-butyl-5,6,7,8-tetrahydrothieno[2,3-b]quinoline-2-carboxylic acid amide], more than 7.00; that for `CC(C)(C)C1CCCc2nc3sc(C(N)=O)cc3cc2C1` (centres unmarked) [Example 65], more than 7.00. Consider `CC(C)(C)C1CCc2cc3cc(C(N)=O)sc3nc2CC1` (centres unmarked) [Example 66], for which the pIC50 is 5.00 to 6.00. With `CC(C)(C)C1CCc2nc3sc(C(N)=S)cc3cc2C1` (centres unmarked) [Example 70, 6-tert-butyl-5,6,7,8-tetrahydrothieno[2,3-b]quinoline-2-carbothioic acid amide], the pIC50 is 6.00 to 7.00. In the case of `CCC(C)(C)C1CCc2c(cc3cc(C#N)sc3[n+]2[O-])C1` (centres unmarked) [Example 71], the pIC50 is 5.00 to 6.00.

As to `CCC(C)(C)C1CCc2nc3sc(-c4nn[nH]n4)cc3cc2C1` (centres unmarked) [Example 72], the pIC50 is 5.00 to 6.00. Still for that read-out and setting: the figure for `CC(C)(C)C1CCc2nc3sc(C(=O)O)cc3cc2C1` (centres unmarked) [Example 73, 6-tert-Butyl-5,6,7,8-tetrahydrothieno[2,3-b]quinoline-2-carboxylic acid] is less than 5.00.

The same test, now with this note: exact IC50 values, end-point assay (Table 2); read-out: IC50.
Consider `CC(C)(C)C1CCc2nc3sc(C#N)cc3cc2C1` (single isomer, unassigned) [Example 63], for which the pIC50 is 7.40.

As for `CC(C)(C)C1CCc2nc3sc(C(N)=O)cc3cc2C1` (single isomer, unassigned; (+)) [Example 68, (+)-6-(1,1-dimethylethyl)-5,6,7,8-tetrahydrothieno[2,3-b]quinoline-2-carboxamide], the pIC50 was 7.70. On the same count and under the same terms, the figure for `CC(C)(C)C1CCCc2nc3sc(C#N)c(N)c3cc2C1` (centres unmarked) [Example 40] is 7.22; for `CCC(C)(C)C1CCc2nc3sc(C#N)cc3cc2C1` (centres unmarked) [Example 59] it is 7.26. For `CC(C)(C)C1CCCc2nc3sc(C(N)=O)cc3cc2C1` (centres unmarked) [Example 65], the negative logarithm of the IC50 (pIC50) is 7.21.

A word on the IC50: it is the concentration at which inhibition is half-maximal. Read a low IC50 as inhibition by little substance. In general, pIC50 refers to the negative decadic logarithm of the IC50, by convention in mol/L.
